Like-named read-outs stand apart in the source and are kept apart here. Some results are limits rather than exact numbers.

For series [1] the following is noted: cited from earlier work.
Series [2] in a line: Stability test at different pH and temperatures (assay of both actives). The format is physicochemical. The source says:
Des échantillons de la composition de l'exemple 9, qui contient 8% de bithionol sulfoxyde et 1,9% de chlorhydrate de levamisole, sont amenés à différents pH et conservés aux différentes températures, comme indiqué au tableau 4 ci-après.
Les pH inférieurs à 7 sont ajustés avec du tampon mandéli- que (1 M), tandis que les phosphates habituels ont servi (0,025 M) à fixer le pH supérieur à 7.
Dans chaque cas, le dosage des deux corps actifs est effectué aux différentes périodes choisies et les teneurs en ces corps sont notées au tableau 4.

The conditions of series [3]: in vivo; cited from earlier work.
Series [4] is described as follows: Maximum tolerated dose and therapeutic index. The settings on record: in vivo, read-out: indice thérapeutique. The text has this: La présente invention apporte un progrès marqué dans les traitements des atteintes justiciables du bithionol sulfoxyde et des mélanges de ce composé avec d'autres anthelminthiques. Elle permet l'application des composés actifs sous la forme d'un liquide homogène, ne donnant pas lieu à la sédimentation, susceptible par conséquent d'être dosé avec précision et appliqué par des personnes non spécialisées.Un autre avantage considérable de la composition suivant l'invention est la possibilité de l'administration de celle-ci par injection, forme qui était complètement exclue jusqu'à présent. Un autre avantage également très important de la composition selon l'invention est qu'elle permet l'utilisation du bithionol sulfoxyde et des autres anthelminthiques, composant le mélange, à des doses moindres que celles qui étaient jusqu'alors utilisées. Pour n'en donner qu'un exemple pour le bithionol sulfoxyde, cette dose peut passer de 40 mg/kg de poids vif traité à 30 mg/kg pour une même efficacité. Lorsque l'on sait que la dose maximale tolérée est de 150 mg/kg, cela fait passer l'indice thérapeutique de moins de 4 à 5.

As for `c1ccc([C@H]2CN3CCSC3=N2)cc1` [chlorhydrate de L(-) levamisole, tétrahydro-2,3,5,6 phényl-6 imidazo(2,1-b)thiazole], the “solubilité dans l'eau” value in series [1] (water) was roughly 20%. The conservation entry in series [2] (pH 6 à 8) was “tient mal”.
As to `[O-][S+](c1cc(Cl)cc(Cl)c1O)c1cc(Cl)cc(Cl)c1O` [bithionol sulfoxyde, bis(hydroxy-2 dichloro-3,5 phényl) sulfoxyde], in series [3], the “dose maximale tolérée” value was 150 mg/kg. In addition, the “insolubilité dans l'eau” value in series [1] (à 25°C) is given as 4 ppm. The results for the conservation result in series [2] (pH 2 à 4) and in series [2] (pH de 6 à 8) were “tout à fait satisfaisante” and “se conserve bien”, respectively. For the same compound, the selectivity ratio is 5 in series [4] (dose 30 mg/kg (composition selon l'invention)) and less than 4 in series [4] (dose 40 mg/kg de poids vif (earlier forms)).

(Values after patent EP0209462A1, “Liquid stable anthelmintic and fungicidal composition based on bithionol sulfoxide” (SOCIETE NATIONALE ELF AQUITAINE, priority 1985, dated 1987).)
